Data on 18 molecules can be found in patent publication US20240150340A1, “CDK Inhibitors And Their Use As Pharmaceuticals” (Prelude Therapeutics Incorporated, priority 2022, published 2024).

The subject of one assay is OVCAR3 p-RB. The assay is described as follows: pRB ICW Assay in OVCAR3 Cells. Conditions: Homo sapiens, OVCAR-3, incubated with compound for 2 hours. It counts as cell-based. As to the method:
pRB ICW Assay in OVCAR3 Cells
OVCAR3 cells were maintained in RPMI (Corning, Catalog #: 10-040-CV) supplemented with 10% v/v FBS (Gibco, Catalog #: 26140-079), 1% v/v Penicillin Streptomycin (Gibco, Catalog #15140-122.) OVCAR3 cells grown at log phase were trypsinized, counted, and resuspended in fresh medium to reach a final density of 6.7e4 cells/mL and 75 μL of culture were dispensed into a 384-well plate (Falcon, cat #353962) using a Multidrop Combi dispenser (Thermo Scientific). The next day, compounds were dispensed as a 9-point, ½ log serial dilution using a Tecan digital dispenser (D300e), and cells were incubated with compound for 2 hours in a humidified incubator at 37° C. A reference compound at a final concentration of 10 μM was used as a control for maximum inhibition. Each compound was tested in duplicate for each experiment. At the end of the incubation, […] (Electron Microscopy, cat #15710) was slowly added to each well and the plate was incubated at room temperature (RT) for 30 minutes to fix cells. Cells were then permeabilized by incubating with 50 μL/well of wash buffer (1×PBS with 0.1% Triton X-100) 5×5 minutes, followed by 1 hour blocking with 30 μL/well of Odyssey blocking buffer (Li-COR, cat #927-40000), at RT. Anti-phosphor RB antibody (Cell signaling 8516S) was diluted 1:1000 in Odyssey blocking buffer and 20 μL was added to all wells and incubated overnight in 4° C. with gently rocking. The next day, cells were washed 5×5 min with 50 μL/well of wash buffer, followed with 1 hour incubation with secondary antibody and DRAQ5 diluted in Odyssey blocking buffer (1:500 dilution for secondary antibody and 1:2000 dilution for DRAQ5), 5×5 min washes, and one last wash with water. Plates were dried in 37° C. oven for 5 minutes and scanned using Li-COR Odyssey CLx imaging system to acquire intensities at 700 and 800 nm channels.

Another assay deals with T1, CDK2/Cyclin E2 (Homo sapiens, UniProt P24941).
T1 construct: Recombinant protein complex CDK2/Cyclin E2, expressed from insect cell, was purchased from ProQinase
The assay is described as follows: CDK2/CyclinE2 Enzymatic Activity Assay (TR-FRET). It counts as biochemical. Conditions: ATP 1 mM final, read-out: CDK2_E1 IC50. The protocol: CDK2/CyclinE2 Enzymatic Activity Assay
The inhibitory activity of compounds was evaluated in vitro using TR-FRET assay with white 384-well low volume microplate (Greiner Bio-One). CDK2/Cyclin E2 catalyzed phosphorylation of peptide in the presence and absence of compounds was measured and used in IC50 determination. Recombinant protein complex CDK2/Cyclin E2, expressed from insect cell, was purchased from ProQinase. Testing compounds were dissolved in DMSO at 1 mM and tested in 9-dose IC50 mode. The reaction mixture was prepared by mixing CDK2/CyclinE2 (1 nM final), ULight-4E-BP1 (50 nM final, Perkinelmer, TRF0128-D), and ATP (1 mM final) in assay buffer (20 mM of HEPES pH 7.4, 1 mM of EGTA, 0.05% BSA, 0.005% Tween 20, and 1 mM TCEP). The compound of interest in DMSO was added to each well in 3-fold serial dilution by dispenser (TECAN D300E) to make a 9.9 μL of reaction mixture. After 20 minutes preincubation at room temperature, 0.1 μL MgCl2 (10 mM final) was added to initiate the reaction. Following a 45 minute incubation at 37° C., the reaction was stopped by addition of 2 μL of quenching buffer consisting of Lance detection buffer (Perkinelmer CR97-100C), LANCE Ultra Europium-anti-P-4E-BP1 (Perkinelmer, TRF0216-D), EDTA, and incubated at room temperature for additional 60 minutes in the dark. The reaction signal was measured by Envision multimode plate reader (PerkinElmer, 2102-0010). IC50 values were determined by fitting the data to the standard 4 parameters with Hill Slope using GraphPad Prism software.
For orientation: TR-FRET usually uses a lanthanide donor and a delayed reading to cut background.

Broadly, the IC50 is the concentration that inhibits the measured activity by half. For `CC(C)(O)c1cnc(-c2nc(NC3CCN(S(C)(=O)=O)CC3)ncc2C(F)(F)F)s1` [Example 95, 2-(2-(2-((1-(methylsulfonyl)piperidin-4-yl)amino)-5-(trifluoromethyl)pyrimidin-4-yl)thiazol-5-yl)propan-2-ol], the IC50 is 100 to 500 nM in the assay with OVCAR3 p-RB and not above 100 nM on CDK2/Cyclin E2.

Consider `CC(C)(O)c1cnc(-c2nc(N[C@H]3CCN(S(C)(=O)=O)C[C@H]3F)ncc2C(F)(F)F)s1` [Example 96, 2-(2-(2-(((3R,4S)-3-fluoro-1-(methylsulfonyl)piperidin-4-yl)amino)-5-(trifluoromethyl)pyrimidin-4-yl)thiazol-5-yl)propan-2-ol], for which the IC50 in the assay with OVCAR3 p-RB and at CDK2/Cyclin E2 was not above 100 nM in each case.

Consider `CC(C)(O)c1cnc(-c2nc(N[C@@H]3CCN(S(C)(=O)=O)C[C@H]3F)ncc2C(F)(F)F)s1` [Example 97, 2-(2-(2-(((3R,4R)-3-fluoro-1-(methylsulfonyl)piperidin-4-yl)amino)-5-(trifluoromethyl)pyrimidin-4-yl)thiazol-5-yl)propan-2-ol], for which the IC50 with OVCAR3 p-RB and on CDK2/Cyclin E2 was not above 100 nM in each case.

Consider `Cn1cnc(S(=O)(=O)N2CCC(Nc3ncc(C(F)(F)F)c(-c4ncc(C(C)(C)O)s4)n3)CC2)c1` [Example 98, 2-(2-(2-((1-((1-methyl-1H-imidazol-4-yl)sulfonyl)piperidin-4-yl)amino)-5-(trifluoromethyl)pyrimidin-4-yl)thiazol-5-yl)propan-2-ol], for which the IC50 with OVCAR3 p-RB and on CDK2/Cyclin E2 was not above 100 nM in each case.

On to `Cn1cc(S(=O)(=O)N2CCC(Nc3ncc(C(F)(F)F)c(-c4ncc(C(C)(C)O)s4)n3)CC2)cn1` [Example 99, 2-(2-(2-((1-((1-methyl-1H-pyrazol-4-yl)sulfonyl)piperidin-4-yl)amino)-5-(trifluoromethyl)pyrimidin-4-yl)thiazol-5-yl)propan-2-ol], for which the IC50 in the assay with OVCAR3 p-RB is 100 to 500 nM; at CDK2/Cyclin E2, not above 100 nM.

In the case of `Cn1cc(S(=O)(=O)N2CC[C@@H](Nc3ncc(C(F)(F)F)c(-c4ncc(C(C)(C)O)s4)n3)[C@H](F)C2)cn1` [Example 101, 2-(2-(2-(((3R,4R)-3-fluoro-1-((1-methyl-1H-pyrazol-4-yl)sulfonyl)piperidin-4-yl)amino)-5-(trifluoromethyl)pyrimidin-4-yl)thiazol-5-yl)propan-2-ol], the IC50 with OVCAR3 p-RB and at CDK2/Cyclin E2 was not above 100 nM throughout.

Turning to `CC(O)(c1cnc(-c2nc(NC3CCN(S(C)(=O)=O)CC3)ncc2C(F)(F)F)s1)C(F)F` (centres unmarked) [Example 102, 1,1-difluoro-2-(2-(2-((1-(methylsulfonyl)piperidin-4-yl)amino)-5-(trifluoromethyl)pyrimidin-4-yl)thiazol-5-yl)propan-2-ol], the IC50 in the assay with OVCAR3 p-RB and at CDK2/Cyclin E2 was not above 100 nM throughout.

Take `C[C@@H]1CN(S(=O)(=O)c2cnn(C)c2)CC[C@@H]1Nc1ncc(C(F)(F)F)c(-c2ncc(C(C)(O)C(F)(F)F)s2)n1` (stereo partly drawn) [Example 105, 1,1,1-trifluoro-2-(2-(2-(((3R,4S)-3-methyl-1-((1-methyl-1H-pyrazol-4-yl)sulfonyl)piperidin-4-yl)amino)-5-(trifluoromethyl)pyrimidin-4-yl)thiazol-5-yl)propan-2-ol]: the IC50 in the assay with OVCAR3 p-RB and on CDK2/Cyclin E2 was not above 100 nM throughout.

Consider `CS(=O)(=O)N1CCC(Nc2ncc(C(F)(F)F)c(-c3ncc(C4(O)CCC4)s3)n2)CC1` [Example 106, 1-(2-(2-((1-(methylsulfonyl)piperidin-4-yl)amino)-5-(trifluoromethyl)pyrimidin-4-yl)thiazol-5-yl)cyclobutan-1-ol], for which the IC50 in the assay with OVCAR3 p-RB is 100 to 500 nM; on CDK2/Cyclin E2 it was not above 100 nM.

For the molecule `Cn1cc(S(=O)(=O)N2CC[C@@H](Nc3ncc(C(F)(F)F)c(-c4ncc(CC(C)(C)O)s4)n3)[C@H](F)C2)cn1` [Example 110, 1-(2-(2-(((3R,4R)-3-fluoro-1-((1-methyl-1H-pyrazol-4-yl)sulfonyl)piperidin-4-yl)amino)-5-(trifluoromethyl)pyrimidin-4-yl)thiazol-5-yl)-2-methylpropan-2-ol], the figures for the IC50 in the assay on OVCAR3 p-RB and on CDK2/Cyclin E2 were 100 to 500 nM and not above 100 nM, respectively.

Take `C[C@@H]1CN(S(=O)(=O)c2cnn(C)c2)CC[C@@H]1Nc1ncc(C(F)(F)F)c(-c2ncc(CC(C)(C)O)s2)n1` [Example 111, 2-methyl-1-(2-(2-(((3R,4S)-3-methyl-1-((1-methyl-1H-pyrazol-4-yl)sulfonyl)piperidin-4-yl)amino)-5-(trifluoromethyl)pyrimidin-4-yl)thiazol-5-yl)propan-2-ol]: the IC50 with OVCAR3 p-RB and at CDK2/Cyclin E2 was not above 100 nM each time.

`CC(O)c1cnc(-c2nc(NC3CCN(S(C)(=O)=O)CC3)ncc2C(F)(F)F)s1` (centres unmarked) [Example 112, 1-(2-(2-((1-(methylsulfonyl)piperidin-4-yl)amino)-5-(trifluoromethyl)pyrimidin-4-yl)thiazol-5-yl)ethan-1-ol]: the IC50 with OVCAR3 p-RB and at CDK2/Cyclin E2 was not above 100 nM throughout.

Regarding `CS(=O)(=O)N1CCC(Nc2ncc(C(F)(F)F)c(-c3ncc(C(O)C(F)(F)F)s3)n2)CC1` (centres unmarked) [Example 113, 2,2,2-trifluoro-1-(2-(2-((1-(methylsulfonyl)piperidin-4-yl)amino)-5-(trifluoromethyl)pyrimidin-4-yl)thiazol-5-yl)ethan-1-ol], the IC50 in the assay on OVCAR3 p-RB and at CDK2/Cyclin E2 was not above 100 nM throughout.

In the case of `CC(O)c1cnc(-c2nc(N[C@@H]3CCN(S(=O)(=O)c4cnn(C)c4)C[C@H]3F)ncc2C(F)(F)F)s1` (stereo partly drawn) [Example 115, 1-(2-(2-(((3R,4R)-3-fluoro-1-((1-methyl-1H-pyrazol-4-yl)sulfonyl)piperidin-4-yl)amino)-5-(trifluoromethyl)pyrimidin-4-yl)thiazol-5-yl)ethan-1-ol], the IC50 with OVCAR3 p-RB and at CDK2/Cyclin E2 was not above 100 nM throughout.

For `CC(C)(O)c1sc(-c2nc(N[C@@H]3CCN(S(C)(=O)=O)C[C@H]3F)ncc2C(F)(F)F)cc1C#N` [Example 116, 5-(2-(((3R,4R)-3-fluoro-1-(methylsulfonyl)piperidin-4-yl)amino)-5-(trifluoromethyl)pyrimidin-4-yl)-2-(2-hydroxypropan-2-yl)thiophene-3-carbonitrile], the IC50 in the assay with OVCAR3 p-RB and on CDK2/Cyclin E2 was not above 100 nM throughout.

As to `Cn1cc(S(=O)(=O)N2CCC(Nc3ncc(C(F)(F)F)c(-c4cc(C#N)c(C(C)(C)O)s4)n3)CC2)cn1` [Example 117, 2-(2-hydroxypropan-2-yl)-5-(2-((1-((1-methyl-1H-pyrazol-4-yl)sulfonyl)piperidin-4-yl)amino)-5-(trifluoromethyl)pyrimidin-4-yl)thiophene-3-carbonitrile], the IC50 in the assay on OVCAR3 p-RB and at CDK2/Cyclin E2 was not above 100 nM each time.

Consider `C[C@@H]1CN(S(=O)(=O)c2cnn(C)c2)CC[C@@H]1Nc1ncc(C(F)(F)F)c(-c2cc(C#N)c(C(C)(C)O)s2)n1` [Example 118, 2-(2-hydroxypropan-2-yl)-5-(2-(((3R,4S)-3-methyl-1-((1-methyl-1H-pyrazol-4-yl)sulfonyl)piperidin-4-yl)amino)-5-(trifluoromethyl)pyrimidin-4-yl)thiophene-3-carbonitrile], for which the IC50 with OVCAR3 p-RB was 100 to 500 nM; on CDK2/Cyclin E2, not above 100 nM.

On to `Cc1cnc(N[C@H]2CCN(S(C)(=O)=O)C[C@H]2F)nc1-c1ncc(CC(C)(C)O)s1` [Example 155, 1-(2-(2-(((3R,4S)-3-fluoro-1-(methylsulfonyl)piperidin-4-yl)amino)-5-methylpyrimidin-4-yl)thiazol-5-yl)-2-methylpropan-2-ol], for which, in the assay with OVCAR3 p-RB, the IC50 was not above 100 nM.
